Experimental data: patent US10696677B2 (Research Triangle Institute, priority 2016, dated 2020)
“Also recorded” adds a separate entry of the source. Read-outs that look alike come from different tables or passages of the source.

Tests used:
hCB1 [1] = target: T1, hCB1 (Homo sapiens, UniProt P21554); assay: radioligand displacement binding at CB1 (membranes of CHO-K1 cells over-expressing receptor); settings: for CB2 Ki/CB1 Ki selectivity ratio: CB1 versus CB2
Protocol: (§1) All compounds were characterized by H^1 NMR and evaluated using a calcium mobilization assay. […] Further characterization of select compounds was performed using radioligand displacement of [3H]1 and equilibrium dissociation constant (Ki) values were determined.

hCB2 = hCB2 (Homo sapiens, UniProt P34972); assay: radioligand displacement binding at CB2 ([3H]CP55940, membranes of CHO-K1 cells over-expressing receptor)
Sequence of hCB2 (P34972 whole entry): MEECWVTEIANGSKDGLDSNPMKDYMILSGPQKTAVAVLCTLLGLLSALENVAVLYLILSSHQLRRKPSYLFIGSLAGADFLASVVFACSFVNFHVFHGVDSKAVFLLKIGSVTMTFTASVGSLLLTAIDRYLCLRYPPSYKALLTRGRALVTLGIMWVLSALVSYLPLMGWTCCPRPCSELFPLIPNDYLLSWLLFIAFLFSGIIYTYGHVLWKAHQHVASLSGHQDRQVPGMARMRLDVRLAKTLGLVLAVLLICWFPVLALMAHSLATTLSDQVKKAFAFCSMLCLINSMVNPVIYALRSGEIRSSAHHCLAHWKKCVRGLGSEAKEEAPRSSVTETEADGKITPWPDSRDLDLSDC
Protocol: as §1

MDCK = MDCK BBB Assay; format: in vitro ADME; settings: for % Permeable: MDCK BBB assay; for MDCK BBB Assay (Basolateral/Apical Peak Area Ratio) Mean: MDCK cells
hCB1 [2] = target: T1, hCB1; assay: functional fluorescent CB1 activated Gαq16-coupled intracellular calcium mobilization assay in CHO-K1 cells; format: cell-based; design: expressed in transfected cells; host or cells: CHO-K1 (membranes); settings: average of 3-6 measurements, read-out: Apparent antagonist dissociation constant (Ke) at hCB1
[3] = in vivo brain penetration, brain and plasma levels by LC/MS/MS; settings: mouse, po, mice, cassette dosed orally at 2.5 mg/kg, read-out: Brain:Plasma Ratio
Protocol: Select compounds were chosen for in vivo studies to determine penetration into the CNS. Compounds were cassette dosed orally at 2.5 mg/kg in mice. Brain and plasma samples were collected at 1, 2, 4, and 24 hours post dose and samples were analyzed by LC/MS/MS (Table 5, below). Unperfused brains were used which contain a blood volume of approximately 4%.

mouse model of AS = assay: alcohol induced liver steatosis mouse model, Oil Red O staining of liver sections; format: in vivo, C57BL/6J mice
Excerpt: FIG. 1A-1B. […] (FIG. 1A) Representative liver sections from mice receiving control diet without ethanol+vehicle (left panel), ethanol containing diet+vehicle (center panel) or ethanol containing diet+98 (right panel).
Pathogen-free female C57BL/6J mice, aged 9 weeks (Jackson Laboratories, Bar Harbor, Me., USA) weighing 19-21 g were used in this study. C57BL/6 mice were offered solid PicoLab Certified Rodent LabDiet® 5053 (pellet) ad libitum during the acclimation period following which, all animals were switched to a Lieber-DeCarli 82′ Control (Catalog No: F1259SP, BioServ®) diet which was nutritionally complete. […] Digitized images of mouse liver sections (10 μm in thickness) were assessed semi-quantitatively for degree of steatosis using Image J software (NIH, Bethesda, Md.). Briefly, a 5 in^2 digital grid (Image J Command Menu: Plugin-Analyze-Grid) was placed on each image wherein lipid droplets in 6 grids per image were counted and the average number of oil droplets was recorded for each animal (n=6, per group). […] Statistical significance was determined through ANOVA between treatment and control groups using Graph Pad Prism 7.0 (GraphPad Software Inc., La Jolla, Calif., USA) at a confidence level of *p<0.001.
In contrast, the ethanol containing diet caused significant accumulation of lipid droplets (center panel in FIG. 1A). […] The data are quantified in FIG. 1B.

alcoholic steatosis, AS = settings: past studies; cited from earlier work
[4] = read-out: Binding affinity (Ki) at hCB1, radioligand displacement, CHO-K1 membranes, average of 3-6 measurements

T1 sequence (P21554 whole entry): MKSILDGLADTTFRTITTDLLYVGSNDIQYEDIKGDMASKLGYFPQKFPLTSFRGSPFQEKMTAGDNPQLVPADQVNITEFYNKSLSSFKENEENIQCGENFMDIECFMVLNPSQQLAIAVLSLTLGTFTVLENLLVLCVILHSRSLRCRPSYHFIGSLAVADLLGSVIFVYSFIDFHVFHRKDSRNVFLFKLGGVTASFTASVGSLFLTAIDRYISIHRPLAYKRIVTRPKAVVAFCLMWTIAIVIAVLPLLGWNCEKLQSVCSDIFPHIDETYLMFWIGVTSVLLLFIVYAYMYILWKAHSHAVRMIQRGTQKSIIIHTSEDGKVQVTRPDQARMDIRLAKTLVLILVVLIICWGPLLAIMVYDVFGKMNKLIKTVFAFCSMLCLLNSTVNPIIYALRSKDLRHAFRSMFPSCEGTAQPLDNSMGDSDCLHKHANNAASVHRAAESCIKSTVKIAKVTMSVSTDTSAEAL

Compound | CB2 Ki/CB1 Ki selectivity ratio (hCB1 [1]) | melting point [°C] | Ki (hCB2) [nM] | % Permeable (MDCK) [%] | Kb (hCB1 [2]) [nM] | Kp [3] | other results
O=S(=O)(NC1CCN(c2ncnc3c2nc(-c2ccccc2Cl)n3-c2ccc(Cl)cc2)CC1)c1ccc(F)cc1F [Compound 5, N-{1-[8-(2-Chlorophenyl)-9-(4-chlorophenyl)-9H-purin-6-yl]piperidin-4-yl}-2,4-difluorobenzene-1-sulfonamide] | 26000 | 232 to 233 | 53000 | 0 | 2 |  | Ki (hCB1 [1]; [4]): 2 nM; MDCK BBB Assay (Basolateral/Apical Peak Area Ratio) Mean (MDCK): 0.0008
O=C(Nc1ccccc1F)NC1CCN(c2ncnc3c2nc(-c2ccccc2Cl)n3-c2ccc(Cl)cc2)CC1 [Compound 19, 3-{1-[8-(2-Chlorophenyl)-9-(4-chlorophenyl)-9H-purin-6-yl]piperidin-4-yl}-1-(2-fluorophenyl)urea] |  |  |  | 0 |  | 0.03 | 
N=C(NC1CCN(c2ncnc3c2nc(-c2ccccc2Cl)n3-c2ccc(Cl)cc2)CC1)c1ccc(F)cc1 [Compound 26, N-{1-[8-(2-chlorophenyl)-9-(4-chlorophenyl)-9H-purin-6-yl]piperidin-4-yl}-4-fluorobenzenecarboximidamide] | >11 |  | > 6000 | 0 | 44 | 0.16 | Ki (hCB1 [1]): 520 nM; MDCK BBB Assay (Basolateral/Apical Peak Area Ratio) Mean (MDCK): 0.0019
O=C(Nc1ccc(OC(F)F)nc1)N1CCN(c2ncnc3c2nc(-c2ccccc2Cl)n3-c2ccc(Cl)cc2)CC1 [Compound 44, 4-[8-(2-Chlorophenyl)-9-(4-chlorophenyl)-9H-purin-6-yl]-N-[6-(difluoromethoxy)pyridin-3-yl]piperazine-1-carboxamide] |  | 118 to 120 | 74000 |  |  | 0.18 | Ki (hCB1 [1]; [4]): 4 nM
FC(F)Oc1ccc(-n2c(-c3ccccc3Cl)nc3c(N4CCN(Cc5ccccc5Cl)CC4)ncnc32)cn1 [Compound 46, 8-(2-Chlorophenyl)-6-{4-[(2-chlorophenyl)methyl]piperazin-1-yl}-9-[6-(difluoromethoxy)pyridin-3-yl]-9H-purine] | 34 | 147 to 149 | 240 |  | 27 |  | Ki (hCB1 [1]): 7 nM
Clc1ccc(-n2c(-c3ccccc3Cl)nc3c(N4CCN(Cc5ccccc5Cl)CC4)ncnc32)cc1 [Compound 98, 6-[4-(2-Chlorobenzyl)piperazin-1-yl]-8-(2-chlorophenyl)-9-(4-chlorophenyl)-9H-purine] |  |  |  |  |  | 0.06 | hepatic lipid accumulation / liver steatosis (Oil Red O lipid droplets) (mouse model of AS; ethanol diet-fed mice, 1.25 mg/kg twice daily by oral gavage, two weeks, vs ethanol+vehicle, 1.25 mg/kg): significantly reduced hepatic lipid accumulation; also recorded: statistically significant reduction of liver steatosis; disease progression/development in a mouse model of AS (mouse model of AS; mouse model of alcoholic steatosis): block disease progression/development
Clc1ccc(-n2c(-c3ccccc3Cl)nc3c(N4CCN(Cc5cccc(Cl)c5)CC4)ncnc32)cc1 [Compound 99, 6-[4-(3-Chlorobenzyl)piperazin-1-yl]-8-(2-chlorophenyl)-9-(4-chlorophenyl)-9H-purine] |  |  |  |  |  | 0.09 | 
Cc1c(C(=O)NN2CCCCC2)nn(-c2ccc(Cl)cc2Cl)c1-c1ccc(Cl)cc1 [rimonabant] |  |  |  |  |  |  | reduction of alcoholic steatosis (AS) (alcoholic steatosis, AS): effective in reducing AS
